# According to patent US10351525B2, “Beta lactamase inhibitors” (Oxford University Innovation Limited, priority 2014, dated 2019):
# Tests used:
# P. aeruginosa GR57 = experiment: MEM/ML302F treatment assay in infected G. mellonella larvae; type: in vivo; settings: PA GR57 infection; 96 hrs; MEM 0.6 mg/kg, ML302F 4.8 mg/kg, alone or combined (1:8)
# Experimental: (§1) The activity of MEM and ML302F alone and in combination were assessed using 16 G. mellonella larva as described by M. Hornsey and D. W. Wareham (Antimicrob. Agents Chemother., 2011, 55(7), 3534-3537). Larvae were inoculated with P. aeruginosa GR57, E. coli EC98 and K. pneumoniae KP120. In combination therapies, a fixed ratio (1:8) of MEM:ML302F containing 0.6 mg/Kg of MEM8 and 4.8 mg/Kg of ML302F was administered in 10 μL injections to infected larvae. PBS injections (10 μL) were used as both controls for no antimicrobial therapy and inoculation injury. Larvae were scored for survival over 96 hrs and kill curves analysed by the log-rank test for trend. Relative risk (RR) of survival between the different treatment arms was calculated using Fisher's exact test with, two-tailed P-values of <0.05 considered statistically significant.
# E. coli EC98 = experiment: as above; type: in vivo; settings: EC 98 infection; 96 hrs; MEM 0.6 mg/kg, ML302F 4.8 mg/kg, alone or combined (1:8)
# Experimental: as §1
# K. pneumoniae KP120 = experiment: as above; type: in vivo; settings: KP 120 infection; 96 hrs; MEM 0.6 mg/kg, ML302F 4.8 mg/kg, alone or combined (1:8)
# Experimental: as §1
# K. pneumoniae 120 = experiment: MIC of MEM with and without ML302F (1:8), VIM-4 producer; type: cell-based; settings: Klebsiella pneumoniae; K. pneumoniae 120 (VIM-4); MEM alone or with ML302F (1:8)
# Experimental: (§2) In a further study, antimicrobial activities of MEM and ML302F alone and in combination were assessed in-vitro against 31 VIM-producing clinical isolates.
# E. coli 98 = experiment: as above; type: cell-based; settings: Escherichia coli; E. coli 98 (VIM-4); MEM alone or with ML302F (1:8)
# Experimental: as §2
# E. cloacae 102 = experiment: as above; type: cell-based; settings: Enterobacter cloacae; E. cloacae 102 (VIM-4); MEM alone or with ML302F (1:8)
# Experimental: as §2
# K. pneumoniae 101 = experiment: as above; type: cell-based; settings: Klebsiella pneumoniae; K. pneumoniae 101 (VIM-4); MEM alone or with ML302F (1:8)
# Experimental: as §2
smiles,measurement,setting,value
"C[C@@H](O)[C@H]1C(=O)N2C(C(=O)O)=C(S[C@@H]3CN[C@H](C(=O)N(C)C)C3)[C@H](C)[C@H]12 [Meropenem, meropenem]",% survival of infected larvae,P. aeruginosa GR57,23%
same,% survival of infected larvae,E. coli EC98,44%
same,% survival of infected larvae,K. pneumoniae KP120,69%
same,MIC,K. pneumoniae 120,16 µg/mL
same,MIC,E. coli 98,16 µg/mL
same,MIC,E. cloacae 102,32 µg/mL
same,MIC,K. pneumoniae 101,32 µg/mL
